Where a name gives a salt, the structure may show the parent alone. Read-outs that look alike come from different tables or passages of the source.
Tests used:
[1] = cited from earlier work
[2] = saturated solution; cited from earlier work
[3] = in man; cited from earlier work
[4] = in vivo; conditions: dog, iv
Experimental: Single IV doses were given to each of a group of four beagle dogs: 5 mg of propranolol free base was dissolved in 3 ml sterile sodium chloride solution USP. The solution was infused over a 20 second period through an in-line millipore filter. Blood samples (1 ml) were withdrawn at desired intervals postinfusion. The IV results are shown as a " ." Similarly, blood plasma samples were withdrawn and analyzed for oral administration of 80 mg propranolol in immediate release form (" ") and the polymer coated dosage delivery form of section A. above ("+").
DDT is indicated by the release of citric acid from the drug-containing core which causes a spike in the pH time profile. The pH will remain depressed for the duration of the dissolution of the citric acid.
Blood samples (1 ml) were withdrawn at 5, 10, 15, 20, 30, 40, 50, 60, 70, 80, 90, 105, 120, 150, 180, 240, 300, 360 and 420 minutes after dosing for the immediate release dosage form. For the polymer coated tablets, the sampling schedule began at the time of coating dissolution (CDT). After dissolution, blood samples (1 ml) were withdrawn at 5, 15, 30, 45, 60, 90, 120, 190, 240, 300, 360 and 420 minutes.

[5] = list of drugs with nonlinear kinetics

SMILES | F [1, 5] | also measured
C[C@]12C=CC(=O)C=C1CC[C@@H]1[C@@H]2C(=O)C[C@@]2(C)[C@H]1CC[C@]2(O)C(=O)CO [Prednisone] | – | F ([1]; in vivo): 0.85
C#C[C@]1(O)CC[C@H]2[C@@H]3CCc4cc(O)ccc4[C@H]3CC[C@@]21C [Ethinylestradiol] | 0.4 | –
CN/C(=N/CCSCc1nc[nH]c1C)NC#N [Cimetidine] | 0.7 | –
[Cl-].[Na+] [sodium chloride] | – | osmotic pressure [2]: 5250 psi
CC(C)C[C@H]1C(=O)N2CCC[C@H]2[C@]2(O)O[C@](NC(=O)[C@@H]3C=C4c5cccc6[nH]c(Br)c(c56)C[C@H]4N(C)C3)(C(C)C)C(=O)N12 [Bromocriptine Mesylate] | 0.6 | –
CC(C)NCC(O)COc1cccc2ccccc12 (stereo not shown) [propranolol] | – | biological half-life [3]: two to six; half-life ([4]; half-life): 1.97 h; half-life ([4]; terminal phase half-life): ~2 h
C[C@H]1C[C@@H]2[C@H]([C@@H](O)C[C@@]3(C)[C@H]2CC[C@]3(O)C(=O)CO)[C@@]2(C)C=CC(=O)C=C12 [Methylprednisolone] | 0.85 | –
C#C[C@]1(O)CC[C@H]2[C@@H]3CCC4=CC(=O)CC[C@@H]4[C@H]3CC[C@@]21C [Norethindrone] | 0.65 | –

Reference: patent US5229131A, “Pulsatile drug delivery system” (priority 1991, dated 1993)
